Results: PMC12948427 (The Journal of Clinical Investigation, 2025)
Values joined by “and” are separate entries in the source; they are usually repeats but may differ in a detail not shown here. Identical values can stand only once. Like-named read-outs stand apart in the source and are kept apart here.

Assays:
MHV [1] = test system: MHV
HCoV-229E = assay: In vitro antiviral activity assay (IFA), HCoV-229E; type: cell-based; details: for Inhibition rate (IFA): Fig 5F, MOI 0.1, 48 h
SARS-CoV-2 wild-type = assay: microbe, parasite or virus in culture; type: cell-based
MHV [2] = assay: microbe, parasite or virus in culture; type: cell-based, mouse hepatitis virus (MHV); details: Murine coronavirus, 24 h, read-out: EC50 (IFA)
WIV1 [3] = assay: microbe, parasite or virus in culture; type: cell-based, bat coronavirus WIV1; details: Bat coronavirus, 48 h, read-out: EC50 (IFA)
HCoV-NL63 = assay: In vitro antiviral activity assay (IFA), HCoV-NL63; type: cell-based; details: for Inhibition rate (IFA): Fig 5C, MOI 0.1, 48 h
HCoV-OC43 = assay: In vitro antiviral activity assay (IFA), HCoV-OC43; type: cell-based; details: for Inhibition rate (IFA): Fig 5E, MOI 0.1, 48 h
MHV [4] = type: cell-based, mouse hepatitis virus (MHV)
[5] = type: cell-based
MHV [6] = assay: microbe, parasite or virus in culture; details: Murine coronavirus, 24 h, read-out: EC50, rescue of coronavirus-induced cytopathic effects
WIV1 [7] = type: cell-based, bat coronavirus WIV1
SARS-CoV-2 Omicron BA.5 = assay: microbe, parasite or virus in culture; type: cell-based; details: Severe acute respiratory syndrome coronavirus 2, 24 h, read-out: EC50 (IFA)
[8] = target: M146 (SARS-CoV-2 M 135-146 peptide fused with HIV-TAT) (HIV | SARS-CoV-2) (UniProt P0DTC5); assay: SPR
[9] = target: M161 (SARS-CoV-2 M 135-161 peptide fused with HIV-TAT) (HIV | SARS-CoV-2) (UniProt P0DTC5); assay: SPR
[10] = target: M146 (SARS-CoV-2 M 135-146 peptide fused with HIV-TAT) (HIV | SARS-CoV-2) (UniProt P0DTC5); assay: SPR; remark: listed apart in the source
[11] = target: M161 (SARS-CoV-2 M 135-161 peptide fused with HIV-TAT) (HIV | SARS-CoV-2) (UniProt P0DTC5); assay: SPR; remark: listed apart in the source

Chain of hHGS 1-390-6 × HIS protein (O14964 1-390): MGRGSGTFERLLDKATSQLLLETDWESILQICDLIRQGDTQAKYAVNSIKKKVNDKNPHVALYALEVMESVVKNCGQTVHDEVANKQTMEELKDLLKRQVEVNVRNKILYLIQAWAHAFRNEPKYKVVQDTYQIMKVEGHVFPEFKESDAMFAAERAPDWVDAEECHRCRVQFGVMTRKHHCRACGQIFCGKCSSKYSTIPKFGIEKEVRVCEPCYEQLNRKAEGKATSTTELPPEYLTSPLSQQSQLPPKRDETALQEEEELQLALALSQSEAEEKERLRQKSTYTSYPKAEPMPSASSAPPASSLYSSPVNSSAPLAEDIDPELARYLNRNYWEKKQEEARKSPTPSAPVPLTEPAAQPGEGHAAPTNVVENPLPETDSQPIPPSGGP
Chain of M161 (SARS-CoV-2 M 135-161 peptide fused with HIV-TAT) (HIV | SARS-CoV-2) (P0DTC5 135-161 limits assumed): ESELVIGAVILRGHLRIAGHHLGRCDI

CCC(CC)COC(=O)[C@H](C)N[P@](=O)(OC[C@H]1O[C@@](C#N)(c2ccc3c(N)ncnn23)[C@H](O)[C@@H]1O)Oc1ccccc1 [RDV, remdesivir]
viability of infected cells (rescue of cytopathic effect), Figures S9G-L (MHV [1]; concentration 10): 46.7323 and 45.5347 and 44.3372 | viability of infected cells (rescue of cytopathic effect), Figures S9G-L (MHV [1]; concentration 30): 45.5347 and 43.8916 and 43.4181 | viability of infected cells (rescue of cytopathic effect), Figures S9G-L (MHV [1]; concentration 100): 50.492 and 47.7906 and 49.378 | viability of infected cells (rescue of cytopathic effect), Figures S9G-L (MHV [1]; concentration 300): 59.7939 and 57.0925 and 55.143 | viability of infected cells (rescue of cytopathic effect), Figures S9G-L (MHV [1]; concentration 1000): 78.2027 and 84.5804 and 83.9955 | viability of infected cells (rescue of cytopathic effect), Figures S9G-L (MHV [1]; concentration 3000): 102.237 and 100.176 and 102.46 | viability of infected cells (rescue of cytopathic effect), Figures S9G-L (MHV [1]; concentration 10000): 103.491 and 100.789 and 102.906 | viability of infected cells (rescue of cytopathic effect), Figures S9G-L (MHV [1]; concentration 25000): 101.903 and 103.017 and 102.042 | Inhibition rate (IFA) (HCoV-229E; conc 30 (unit not given)): -0.99% and -1.45% and 0.82% | Inhibition rate (IFA) (HCoV-229E; conc 100 (unit not given)): -0.44% and -1.37% and -2.88% | Inhibition rate (IFA) (HCoV-229E; conc 300 (unit not given)): 11.16% and 13% and 6.71% | Inhibition rate (IFA) (HCoV-229E; conc 1000 (unit not given)): 47.55% and 40.71% and 45.97% | Inhibition rate (IFA) (HCoV-229E; conc 3000 (unit not given)): 81.01% and 82.05% and 81.07% | Inhibition rate (IFA) (HCoV-229E; conc 10000 (unit not given)): 97.22% and 97.53% and 97.6% | Inhibition rate (IFA) (HCoV-229E; conc 25000 (unit not given)): 98.73% and 98.28% | EC50 (HCoV-229E; Human coronavirus 229E, 48 h, read-out: EC50 (IFA)): 1010 nM | cell viability, Figures S9A, B, D-F (17Cl-1 cells; concentration 0.01): 103.896 and 102.857 | cell viability, Figures S9A, B, D-F (17Cl-1 cells; concentration 0.03): 100 | cell viability, Figures S9A, B, D-F (17Cl-1 cells; concentration 0.1): 100 | cell viability, Figures S9A, B, D-F (17Cl-1 cells; concentration 0.3): 100 | cell viability, Figures S9A, B, D-F (17Cl-1 cells; concentration 1): 100 | cell viability, Figures S9A, B, D-F (17Cl-1 cells; concentration 3): 100 | cell viability, Figures S9A, B, D-F (17Cl-1 cells; concentration 10): 100 | cell viability, Figures S9A, B, D-F (17Cl-1 cells; concentration 25): 100 | Inhibition rate (IFA) (SARS-CoV-2 wild-type): -18.2121% | EC50 (SARS-CoV-2 wild-type; Severe acute respiratory syndrome coronavirus 2, 24 h, read-out: EC50 (IFA)): 3510 nM | EC50 (MHV [2]): 1290 nM | EC50 (WIV1 [3]): 2420 nM | Inhibition rate (IFA) (HCoV-NL63; conc 10 (unit not given)): -13.7402% and -16.2366% and -15.0261% | Inhibition rate (IFA) (HCoV-NL63; conc 300 (unit not given)): 80.1311% and 63.4462% and 86.5422% | Inhibition rate (IFA) (HCoV-NL63; conc 1000 (unit not given)): 98.8533% and 99.4472% and 99.9344% | Inhibition rate (IFA) (HCoV-NL63; conc 3000 (unit not given)): 99.4236% and 99.6729% and 98.5431% | Inhibition rate (IFA) (HCoV-NL63; conc 10000 (unit not given)): 99.8898% and 100.315% and 100.324% | Inhibition rate (IFA) (HCoV-NL63; conc 25000 (unit not given)): 100.095% and 100.184% and 100.326% | EC50 (HCoV-NL63; Human coronavirus NL63, 48 h, read-out: EC50 (IFA)): 200 nM | EC50 (HCoV-OC43; Betacoronavirus 1, OC43, 48 h, read-out: EC50 (IFA)): 410 nM | Inhibition rate (IFA) (HCoV-OC43; conc 10 (unit not given)): 50.23% and 41.56% and 35.15% | Inhibition rate (IFA) (HCoV-OC43; conc 30 (unit not given)): 35.85% and 33.9% and 36.83% | Inhibition rate (IFA) (HCoV-OC43; conc 100 (unit not given)): 54.42% and 40.68% and 45.58% | Inhibition rate (IFA) (HCoV-OC43; conc 300 (unit not given)): 65.9% and 68.1% and 71.65% | Inhibition rate (IFA) (HCoV-OC43; conc 1000 (unit not given)): 93.48% and 93.42% and 95.53% | Inhibition rate (IFA) (HCoV-OC43; conc 3000 (unit not given)): 103.3% and 99.46% and 99.73% | Inhibition rate (IFA) (HCoV-OC43; conc 10000 (unit not given)): 112.73% and 104.65% and 109.25% | Inhibition rate (IFA) (HCoV-OC43; conc 25000 (unit not given)): 117.32% and 112.33% and 115.73% | Extracellular MHV gRNA (Figure S11A) (MHV [4]; Ctr 17Cl-1 cells, 24 hpi): 1.417 and 1.434 and 1.4484 | Extracellular MHV gRNA (Figure S11A) (MHV [4]; Ctr 17Cl-1 cells, 48 hpi): 2.342 and 2.426 and 2.427 | Extracellular MHV gRNA (Figure S11A) (MHV [4]; Ctr 17Cl-1 cells, 72 hpi): 2.913 and 2.938 and 2.965 | Extracellular MHV gRNA (Figure S11A) (MHV [4]; Hgs-KO1 17Cl-1 cells, 24 hpi): 0.1732 and 0.2504 and 0.2945 | Extracellular MHV gRNA (Figure S11A) (MHV [4]; Hgs-KO1 17Cl-1 cells, 48 hpi): 0.5159 and 0.4955 and 0.5011 | Extracellular MHV gRNA (Figure S11A) (MHV [4]; Hgs-KO1 17Cl-1 cells, 72 hpi): 0.5763 and 0.5575 and 0.5302 | Extracellular MHV gRNA (Figure S11A) (MHV [4]; Hgs-KO2 17Cl-1 cells, 48 hpi): 0.243 and 0.2742 and 0.2718 | Extracellular MHV gRNA (Figure S11A) (MHV [4]; Hgs-KO2 17Cl-1 cells, 72 hpi): 0.4771 and 0.48 and 0.4728 | antiviral activity in Hgs-KO cells (MHV [4]; MHV, Hgs-KO 17Cl-1, RTB 25 μM or RDV 5 μM, compared with DMSO-treated Hgs-KO cells): maintained potent antiviral activity | Inhibition, time-of-drug-addition (Figures S12A, S12B) ([5]; 1h, concentration 30 (unit not given)): 5.191 and 6.604 and 3.913 | Inhibition, time-of-drug-addition (Figures S12A, S12B) ([5]; 1h, concentration 300 (unit not given)): 29.4212 and 36.852 and 30.2123 | Inhibition, time-of-drug-addition (Figures S12A, S12B) ([5]; 1h, concentration 1000 (unit not given)): 94.0553 and 94.9808 and 93.9778 | Inhibition, time-of-drug-addition (Figures S12A, S12B) ([5]; 1h, concentration 3000 (unit not given)): 100.171 and 99.7032 and 100.277 | Inhibition, time-of-drug-addition (Figures S12A, S12B) ([5]; 1h, concentration 10000 (unit not given)): 100.334 and 99.9318 and 99.6732 | Inhibition, time-of-drug-addition (Figures S12A, S12B) ([5]; 1h, concentration 25000 (unit not given)): 99.7405 and 99.6154 and 100.895 | Inhibition, time-of-drug-addition (Figures S12A, S12B) ([5]; 3h, concentration 300 (unit not given)): 9.79 and 17.6203 and 16.0643 | Inhibition, time-of-drug-addition (Figures S12A, S12B) ([5]; 3h, concentration 1000 (unit not given)): 55.9963 and 60.6001 and 59.2495 | Inhibition, time-of-drug-addition (Figures S12A, S12B) ([5]; 3h, concentration 3000 (unit not given)): 88.3762 and 86.7679 and 87.568 | Inhibition, time-of-drug-addition (Figures S12A, S12B) ([5]; 3h, concentration 10000 (unit not given)): 90.2121 and 88.9101 and 87.2358 | Inhibition, time-of-drug-addition (Figures S12A, S12B) ([5]; 3h, concentration 25000 (unit not given)): 90.2507 and 90.1885 and 92.1218 | Inhibition, time-of-drug-addition (Figures S12A, S12B) ([5]; 5h, concentration 1000 (unit not given)): 25.3228 and 41.8171 and 37.9682 | Inhibition, time-of-drug-addition (Figures S12A, S12B) ([5]; 5h, concentration 3000 (unit not given)): 84.9456 and 81.9798 and 79.5741 | Inhibition, time-of-drug-addition (Figures S12A, S12B) ([5]; 5h, concentration 10000 (unit not given)): 96.9121 and 98.7645 and 101.081 | Inhibition, time-of-drug-addition (Figures S12A, S12B) ([5]; 5h, concentration 25000 (unit not given)): 101.735 and 102.093 and 102.226 | Inhibition, time-of-drug-addition (Figures S12A, S12B) ([5]; 7h, concentration 3000 (unit not given)): 42.654 and 32.1868 and 38.6066 | Inhibition, time-of-drug-addition (Figures S12A, S12B) ([5]; 7h, concentration 10000 (unit not given)): 72.2116 and 77.3057 and 82.6181 | Inhibition, time-of-drug-addition (Figures S12A, S12B) ([5]; 7h, concentration 25000 (unit not given)): 95.7566 and 91.5378 and 92.3496 | antiviral activity versus time of treatment start ([5]; RTB 25 μM or RDV 5 μM added at 0, 2, 4 or 6 hpi): decreased in a time-dependent manner | EC50 (MHV [6]): 690 nM | extracellular viral gRNA levels (RT-qPCR) (WIV1 [7]): 1.00 and 2.00 | EC50 (SARS-CoV-2 Omicron BA.5): 1730 nM

hHGS 1-390-6 × HIS protein (from UniProt O14964 1-390) (domain or fragment)
Kd [8]: 210 nM | Kd [9]: 830 nM | Kd [10]: 5.73 nM | Kd [11]: 3.84 nM
